Reference: patent US9169254B2, “Spiroimidazolone derivative” (Chugai Seiyaku Kabushiki Kaisha, priority 2009, dated 2015)

The compounds below were run against T1, human PTH1 receptor (Homo sapiens, UniProt Q03431) (assay: In vitro cAMP signal activity in HKRK-B7 cells (LLC-PK1 cells overexpressing the human PTH1 receptor)). Conditions: HKRK-B7 cells; compound at 1×10^−3 M; cAMP produced as percentage of that produced by hPTH(1-34) at 100 nM.
T1 sequence (Q03431 27-593): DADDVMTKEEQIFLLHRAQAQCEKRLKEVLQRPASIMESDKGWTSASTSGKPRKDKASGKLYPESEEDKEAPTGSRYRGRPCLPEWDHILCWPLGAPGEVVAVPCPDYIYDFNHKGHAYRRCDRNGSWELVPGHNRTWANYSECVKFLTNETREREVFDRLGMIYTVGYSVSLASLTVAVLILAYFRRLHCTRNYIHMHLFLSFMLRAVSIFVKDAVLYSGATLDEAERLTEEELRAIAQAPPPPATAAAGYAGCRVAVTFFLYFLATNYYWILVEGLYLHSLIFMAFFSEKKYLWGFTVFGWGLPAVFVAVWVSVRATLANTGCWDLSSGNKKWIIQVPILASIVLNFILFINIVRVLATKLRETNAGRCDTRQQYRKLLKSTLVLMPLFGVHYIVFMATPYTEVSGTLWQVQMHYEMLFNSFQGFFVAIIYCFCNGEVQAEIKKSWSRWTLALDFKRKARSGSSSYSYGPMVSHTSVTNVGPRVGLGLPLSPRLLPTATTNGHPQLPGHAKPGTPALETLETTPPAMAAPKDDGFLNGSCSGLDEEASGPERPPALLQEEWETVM
Format: cell-based

Row | SMILES | cAMP production activity (%)
1 | O=C(NCc1ccccc1)c1ccccc1S(=O)(=O)N1CCC2(CC1)N=C(C1CCCCC1)NC2=O [Compound 347, N-Benzyl-2-(2-cyclohexyl-4-oxo-1,3,8-triaza-spiro[4.5]dec-1-ene-8-sulfonyl)-benzamide] | 23
2 | Cc1cc(C(=O)N2CCC(O)(CF)CC2)cc(C)c1/C=C/S(=O)(=O)N1CCC2(CC1)N=C(c1ccc(OCC(F)(F)F)c(C(F)(F)F)c1)NC2=O [Compound 1248, 8-{(E)-2-[4-(4-fluoromethyl-4-hydroxy-piperidine-1-carbonyl)-2,6-dimethyl-phenyl]-ethenesulfonyl}-2-[4-(2,2,2-trifluoro-ethoxy)-3-trifluoromethyl-phenyl]-1,3,8-triaza-spiro[4.5]dec-1-en-4-one] | 81
3 | Cc1cc(N2C(=O)CNC2=O)cc(C)c1CCS(=O)(=O)N1CCC2(CC1)N=C(c1ccc(F)c(C(F)(F)F)c1)NC2=O [Compound 800, 3-(4-{2-[2-(4-fluoro-3-trifluoromethyl-phenyl)-4-oxo-1,3,8-triaza-spiro[4.5]dec-1-ene-8-sulfonyl]-ethyl}-3,5-dimethyl-phenyl)-imidazolidine-2,4-dione] | 77
4 | CCCCCCCCCC1=NC2(CCN(S(=O)(=O)CCc3ccc(N4C(=O)CNC4=O)cc3C(F)(F)F)CC2)C(=O)N1 [Compound 795, 3-{4-[2-(2-nonyl-4-oxo-1,3,8-triaza-spiro[4.5]dec-1-ene-8-sulfonyl)-ethyl]-3-trifluoromethyl-phenyl}-imidazolidine-2,4-dione] | 97
5 | Cc1cc(C(=O)N2CCC(O)(CO)CC2)cc(C)c1/C=C/S(=O)(=O)N1CCC2(CC1)N=C(c1cccc(OC(F)(F)F)c1)NC2=O [Compound 403, 8-{(E)-2-[4-(4-hydroxy-4-hydroxymethyl-piperidine-1-carbonyl)-2,6-dimethyl-phenyl]-ethenesulfonyl}-2-(3-trifluoromethoxy-phenyl)-1,3,8-triaza-spiro[4.5]dec-1-en-4-one] | 51
6 | Cc1cc(CN(C)C(N)=O)cc(C)c1CCS(=O)(=O)N1CCC2(CC1)N=C(C1CCC(CCC(F)(F)F)CC1)NC2=O (stereo not drawn) [Compound 1389, 1-[3,5-dimethyl-4-(2-{4-oxo-2-[4-(3,3,3-trifluoro-propyl)-cyclohexyl]-1,3,8-triaza-spiro[4.5]dec-1-ene-8-sulfonyl}-ethyl)-benzyl]-1-methyl-urea] | 67
7 | Cc1cc(N2C(=O)CNC2=O)ccc1CCS(=O)(=O)N1CCC2(CC1)N=C(c1cccc(OC(F)(F)F)c1)NC2=O [Compound 792, 3-(3-methyl-4-{2-[4-oxo-2-(3-trifluoromethoxy-phenyl)-1,3,8-triaza-spiro[4.5]dec-1-ene-8-sulfonyl]-ethyl}-phenyl)-imidazolidine-2,4-dione] | 110
8 | Cc1cc(N(C)C(N)=O)cc(C)c1/C=C/S(=O)(=O)N1CCC2(CC1)N=C(CCCCCCCCCC(=O)O)NC2=O [Compound 1171, 10-(8-{(E)-2-[2,6-Dimethyl-4-(1-methyl-ureido)-phenyl]-ethenesulfonyl}-4-oxo-1,3,8-triaza-spiro[4.5]dec-1-en-2-yl)-decanoic acid] | 28
9 | Cc1cc(N2C(=O)CC[C@H]2CO)ccc1CCS(=O)(=O)N1CCC2(CC1)N=C(c1ccc(F)c(C(F)(F)F)c1)NC2=O [Compound 858, 2-(4-fluoro-3-trifluoromethyl-phenyl)-8-{2-[4-((S)-2-hydroxymethyl-5-oxo-pyrrolidin-1-yl)-2-methyl-phenyl]-ethanesulfonyl}-1,3,8-triaza-spiro[4.5]dec-1-en-4-one] | 100
10 | Cc1cc(C(=O)N2CCC(O)(CF)CC2)cc(C)c1/C=C/S(=O)(=O)N1CCC2(CC1)N=C(c1ccc(C(F)(F)F)c(Cl)c1)NC2=O [Compound 1241, 2-(3-chloro-4-trifluoromethyl-phenyl)-8-{(E)-2-[4-(4-fluoromethyl-4-hydroxy-piperidine-1-carbonyl)-2,6-dimethyl-phenyl]-ethenesulfonyl}-1,3,8-triaza-spiro[4.5]dec-1-en-4-one] | 101
11 | Cc1cc(C(=O)N(C)CCN(C)C)cc(C)c1/C=C/S(=O)(=O)N1CCC2(CC1)N=C(c1cccc(C(F)(F)F)c1)NC2=O [Compound 390, N-(2-dimethylamino-ethyl)-3,5,N-trimethyl-4-{(E)-2-[4-oxo-2-(3-trifluoromethyl-phenyl)-1,3,8-triaza-spiro[4.5]dec-1-ene-8-sulfonyl]-vinyl}-benzamide] | 22
12 | Cc1cc(C(=O)N(C)C)ccc1CCS(=O)(=O)N1CCC2(CC1)N=C(c1ccc(Cl)c(Cl)c1)NC2=O [Compound 98, 4-{2-[2-(3,4-dichloro-phenyl)-4-oxo-1,3,8-triaza-spiro[4.5]dec-1-ene-8-sulfonyl]-ethyl}-3,N,N-trimethyl-benzamide] | 75
13 | O=C1NC(C2CCCCC2)=NC12CCN(S(=O)(=O)CCc1cccc3c1CCCN3)CC2 [Compound 645, 2-Cyclohexyl-8-[2-(1,2,3,4-tetrahydro-quinolin-5-yl)-ethanesulfonyl]-1,3,8-triaza-spiro[4.5]dec-1-en-4-one] | 55
14 | O=C1NC(C2CCCCC2)=NC12CCN(S(=O)(=O)CCc1cccc3c1ccn3CCC(O)CO)CC2 (stereo not drawn) [Compound 748, 2-cyclohexyl-8-{2-[1-(3,4-dihydroxy-butyl)-1H-indol-4-yl]-ethanesulfonyl}-1,3,8-triaza-spiro[4.5]dec-1-en-4-one] | 61

Other lines, results leading:

Row | cAMP production activity (%) | SMILES
15 | 38 | Cc1cc2c(/C=C/S(=O)(=O)N3CCC4(CC3)N=C(C3CCCCC3)NC4=O)cccc2[nH]1 [Compound 637, 2-Cyclohexyl-8-[(E)-2-(2-methyl-1H-indol-4-yl)-ethenesulfonyl]-1,3,8-triaza-spiro[4.5]dec-1-en-4-one]
16 | 28 | CCc1cccc(NS(=O)(=O)N2CCC3(CC2)N=C(C2CCCCC2)NC3=O)c1 [Compound 177, 2-Cyclohexyl-4-oxo-1,3,8-triaza-spiro[4.5]dec-1-ene-8-sulfonic (3-ethylphenyl)amide]
17 | 59 | Cc1cc(C(=O)N2CCCC2)ccc1/C=C/S(=O)(=O)N1CCC2(CC1)N=C(c1cccc(C(F)(F)F)c1)NC2=O [Compound 212, 8-{(E)-2-[2-methyl-4-(pyrrolidine-1-carbonyl)-phenyl]-ethenesulfonyl}-2-(3-trifluoromethyl-phenyl)-1,3,8-triaza-spiro[4.5]dec-1-en-4-one]
18 | 75 | Cc1cc(N2C(=O)CNC2=O)c(C)cc1/C=C/S(=O)(=O)N1CCC2(CC1)N=C(C1CCC(C)CC1)NC2=O (stereo not drawn) [Compound 581, 3-(2,5-dimethyl-4-{(E)-2-[2-(4-methyl-cyclohexyl)-4-oxo-1,3,8-triaza-spiro[4.5]dec-1-ene-8-sulfonyl]-vinyl}-phenyl)-imidazolidine-2,4-dione]
19 | 56 | Cc1noc(C)c1S(=O)(=O)N1CCC2(CC1)N=C(C1CCCCC1)NC2=O [Compound 59, 2-cyclohexyl-8-(3,5-dimethyl-isoxazole-4-sulfonyl)-1,3,8-triaza-spiro[4.5]dec-1-en-4-one]
20 | 61 | Cc1cc(N2C(=O)CN(C)C2=O)ccc1/C=C/S(=O)(=O)N1CCC2(CC1)N=C(C1CCC(C)CC1)NC2=O (stereo not drawn) [Compound 505, 1-methyl-3-(3-methyl-4-{(E)-2-[2-(4-methyl-cyclohexyl)-4-oxo-1,3,8-triaza-spiro[4.5]dec-1-ene-8-sulfonyl]-vinyl}-phenyl)-imidazolidine-2,4-dione]
21 | 82 | CC(=O)NCc1ccc(CCS(=O)(=O)N2CCC3(CC2)N=C(C2CCC(CCC(F)(F)F)CC2)NC3=O)c(C)c1 (stereo not drawn) [Compound 1394, N-[3-Methyl-4-(2-{4-oxo-2-[4-(3,3,3-trifluoro-propyl)-cyclohexyl]-1,3,8-triaza-spiro[4.5]dec-1-ene-8-sulfonyl}-ethyl)-benzyl]-acetamide]
22 | 14 | Cc1cc(N2C(C)(C)C(=O)NS2(=O)=O)cc(C)c1CCS(=O)(=O)N1CCC2(CC1)N=C(C1CCC(C)CC1)NC2=O (stereo not drawn) [Compound 656, 8-{2-[4-(3,3-dimethyl-1,1,4-trioxo-1λ^6-[1,2,5]thiadiazolidin-2-yl)-2,6-dimethyl-phenyl]-ethanesulfonyl}-2-(4-methyl-cyclohexyl)-1,3,8-triaza-spiro[4.5]dec-1-en-4-one]
23 | 62 | CCCCC1CCC(C2=NC3(CCN(S(=O)(=O)/C=C/c4c(C)cc(N(CCOCCO)C(C)=O)cc4C)CC3)C(=O)N2)CC1 (stereo not drawn) [Compound 716, N-(4-{(E)-2-[2-(4-Butyl-cyclohexyl)-4-oxo-1,3,8-triaza-spiro[4.5]dec-1-ene-8-sulfonyl]-vinyl}-3,5-dimethyl-phenyl)-N-[2-(2-hydroxy-ethoxy)-ethyl]-acetamide]
24 | 85 | Cc1cc(C(=O)NN)cc(C)c1/C=C/S(=O)(=O)N1CCC2(CC1)N=C(C1CCC(CCC(F)(F)F)CC1)NC2=O (stereo not drawn) [Compound 996, 3,5-Dimethyl-4-((E)-2-{4-oxo-2-[4-(3,3,3-trifluoro-propyl)-cyclohexyl]-1,3,8-triaza-spiro[4.5]dec-1-ene-8-sulfonyl}-vinyl)-benzoic acid hydrazide]
